Drawing on ChEMBL document CHEMBL3822439, “Discovery of a novel 6,7-disubstituted-4-(2-fluorophenoxy)quinolines bearing 1,2,3-triazole-4-carboxamide moiety as potent c-Met kinase inhibitors” (Eur J Med Chem, 2016), this text covers IC50 for 30 molecules.

One assay relates to A549. The assay can be described thus: Cytotoxicity against human A549 cells measured after 72 hrs by MTT assay. The conditions noted are these: A549, 72 h. Type of assay: functional, cell-based. In general terms: Formazan colour is commonly taken as a measure of viable cells.
Another assay concerns HT-29. The assay can be described thus: Cytotoxicity against human HT-29 cells measured after 72 hrs by MTT assay. The settings on record: HT-29, 72 h.
Assay [1] in a line: Cytotoxicity against human MKN45 cells measured after 72 hrs by MTT assay. The format is functional, cell-based. The settings on record: MKN-45, 72 h.
Assay [2] in a line: Cytotoxicity against human H460 cells measured after 72 hrs by MTT assay. The conditions noted are these: NCI-H460, 72 h.

For the molecule `COc1cc2c(Oc3ccc(NC(=O)c4cn(-c5ccccc5)nn4)cc3F)ccnc2cc1OCCCN1CCC(C)CC1`, the IC50 with A549 came to 140 nM; in the assay with HT-29 it was 190 nM; in assay [1], 90 nM; in assay [2] it was 210 nM.
With `COc1cc2c(Oc3ccc(NC(=O)c4cn(-c5c(C)cccc5C)nn4)cc3F)ccnc2cc1OCCCN1CCCCC1`, the IC50 with HT-29 was 3690 nM; in assay [1], 2140 nM; in assay [2], 3520 nM.
For the molecule `COc1cc2c(Oc3ccc(NC(=O)c4cn(-c5ccccc5F)nn4)cc3F)ccnc2cc1OCCCN1CCN(C)CC1`, the IC50 in the assay with A549 is 250 nM; with HT-29, 300 nM; in assay [1] it was 140 nM; in assay [2], 230 nM.
Consider `COc1cc2c(Oc3ccc(NC(=O)c4cn(-c5ccccc5F)nn4)cc3F)ccnc2cc1OCCCN1CCC(C)CC1`, for which the concentration for half-maximal inhibition (IC50) in the assay on A549 was 250 nM; with HT-29, 210 nM; in assay [1] it was 130 nM; in assay [2], 190 nM.
For `COc1cc2c(Oc3ccc(NC(=O)c4cn(-c5ccc(F)c(F)c5)nn4)cc3F)ccnc2cc1OCCCN1CCN(C)CC1`, in that order: 200 nM, 430 nM, 160 nM and 250 nM.
For `COc1cc2c(Oc3ccc(NC(=O)c4cn(-c5c(C)cccc5C)nn4)cc3F)ccnc2cc1OCCCN1CCCC1`, in that order: 1240 nM, 2240 nM, 3490 nM and 1560 nM.
For `COc1cc2c(Oc3ccc(NC(=O)c4cn(-c5ccccc5Cl)nn4)cc3F)ccnc2cc1OCCCN1CCOCC1`, in that order: 530 nM, 240 nM, 270 nM and 210 nM.
`COc1cc2c(Oc3ccc(NC(=O)c4cn(-c5c(Cl)cccc5Cl)nn4)cc3F)ccnc2cc1OCCCN1CCOCC1`: the IC50 was determined as 270 nM in the assay with HT-29, 110 nM in assay [1] and 290 nM in assay [2].
Consider `COc1cc2c(Oc3ccc(NC(=O)c4cn(-c5c(C)cccc5C)nn4)cc3F)ccnc2cc1OCCCN1CCOCC1`, for which the IC50 with HT-29 stood at 6140 nM; in assay [2], 4320 nM.
On to `COc1cc2c(Oc3ccc(NC(=O)c4cn(-c5ccccc5)nn4)cc3F)ccnc2cc1OCCCN1CCOCC1`, for which the IC50 is 720 nM with A549, 350 nM in the assay on HT-29, 110 nM in assay [1] and 450 nM in assay [2].
For `COc1cc2c(Oc3ccc(NC(=O)c4cn(-c5ccc(Br)cc5)nn4)cc3F)ccnc2cc1OCCCN1CCOCC1`, in that order: 180 nM, 260 nM, 90 nM and 130 nM.
`COc1cc2c(Oc3ccc(NC(=O)c4cn(-c5ccccc5F)nn4)cc3F)ccnc2cc1OCCCN1CCCCC1`: the IC50 in the assay with A549 was found to be 2770 nM; in the assay with HT-29 it was 290 nM; in assay [1], 1290 nM; in assay [2], 210 nM.
As to `COc1cc2c(Oc3ccc(NC(=O)c4cn(-c5ccc(F)c(F)c5)nn4)cc3F)ccnc2cc1OCCCN1CCCCC1`, the IC50 with A549 amounted to 220 nM; in the assay on HT-29 it was 210 nM; in assay [1] it was 310 nM; in assay [2] it was 250 nM.
As to `COc1cc2c(Oc3ccc(NC(=O)c4cn(-c5ccccc5C)nn4)cc3F)ccnc2cc1OCCCN1CCC(C)CC1`, the IC50 in the assay with A549 amounted to 3500 nM; in the assay with HT-29 it was 2380 nM; in assay [2] it was 2730 nM.
Consider `COc1cc2c(Oc3ccc(NC(=O)c4cn(-c5ccccc5C)nn4)cc3F)ccnc2cc1OCCCN1CCCC1`, for which the IC50 was 900 nM in the assay with A549, 1200 nM in the assay on HT-29 and 1260 nM in assay [2].
Turning to `COc1cc2c(Oc3ccc(NC(=O)c4cn(-c5c(C)cccc5C)nn4)cc3F)ccnc2cc1OCCCN1CCC(C)CC1`, the IC50 in the assay on A549 stood at 3340 nM; in the assay on HT-29, 2450 nM; in assay [1], 4310 nM; in assay [2] it was 2360 nM.
For `COc1cc2c(Oc3ccc(NC(=O)c4cn(-c5ccccc5)nn4)cc3F)ccnc2cc1OCCCN1CCN(C)CC1`, in that order: 160 nM, 180 nM, 60 nM and 200 nM.
For `COc1cc2c(Oc3ccc(NC(=O)c4cn(-c5ccc(Br)cc5)nn4)cc3F)ccnc2cc1OCCCN1CCCC1`, the IC50 is 370 nM in the assay with A549, 190 nM with HT-29, 120 nM in assay [1] and 200 nM in assay [2].
For the molecule `COc1cc2c(Oc3ccc(NC(=O)c4cn(-c5ccccc5Cl)nn4)cc3F)ccnc2cc1OCCCN1CCN(C)CC1`, the IC50 with A549 was 150 nM; in the assay on HT-29, 160 nM; in assay [1], 70 nM; in assay [2] it was 290 nM.
Turning to `COc1cc2c(Oc3ccc(NC(=O)c4cn(-c5ccccc5C)nn4)cc3F)ccnc2cc1OCCCN1CCN(C)CC1`, the IC50 with A549 stood at 3100 nM; in the assay on HT-29, 1430 nM; in assay [2] it was 3650 nM.
In the case of `COc1cc2c(Oc3ccc(NC(=O)c4cn(-c5ccccc5Cl)nn4)cc3F)ccnc2cc1OCCCN1CCC(C)CC1`, the IC50 in the assay with A549 was found to be 370 nM; in the assay with HT-29 it was 130 nM; in assay [1], 240 nM; in assay [2], 230 nM.
The like results for `COc1cc2c(Oc3ccc(NC(=O)c4cn(-c5ccc(F)c(F)c5)nn4)cc3F)ccnc2cc1OCCCN1CCC(C)CC1` were, in that order, 1460 nM, 810 nM, 1290 nM and 260 nM.
The like results for `COc1cc2c(Oc3ccc(NC(=O)c4cn(-c5ccccc5)nn4)cc3F)ccnc2cc1OCCCN1CCCCC1` were, in that order, 130 nM, 180 nM, 100 nM and 210 nM.
The like results for `COc1cc2c(Oc3ccc(NC(=O)c4cn(-c5ccccc5Cl)nn4)cc3F)ccnc2cc1OCCCN1CCCC1` were, in that order, 330 nM, 150 nM, 70 nM and 190 nM.
Consider `COc1cc2c(Oc3ccc(NC(=O)c4cn(-c5c(Cl)cccc5Cl)nn4)cc3F)ccnc2cc1OCCCN1CCCCC1`, for which the IC50 was found to be 150 nM in the assay on A549, 240 nM with HT-29 and 280 nM in assay [2].
With `COc1cc2c(Oc3ccc(NC(=O)c4cn(-c5ccccc5C)nn4)cc3F)ccnc2cc1OCCCN1CCCCC1`, the IC50 was found to be 3230 nM with A549, 1340 nM in the assay on HT-29, 3250 nM in assay [1] and 2100 nM in assay [2].
For `COc1cc2c(Oc3ccc(NC(=O)c4cn(-c5c(Cl)cccc5Cl)nn4)cc3F)ccnc2cc1OCCCN1CCC(C)CC1`, in that order: 320 nM, 1390 nM, 120 nM and 270 nM.
Take `COc1cc2c(Oc3ccc(NC(=O)c4cn(-c5ccc(Br)cc5)nn4)cc3F)ccnc2cc1OCCCN1CCCCC1`: the IC50 in the assay on A549 was 230 nM; in the assay with HT-29 it was 260 nM; in assay [1], 150 nM; in assay [2] it was 360 nM.
Take `COc1cc2c(Oc3ccc(NC(=O)c4cn(-c5ccccc5)nn4)cc3F)ccnc2cc1OCCCN1CCCC1`: the IC50 in the assay on A549 was 360 nM; with HT-29, 180 nM; in assay [1], 260 nM; in assay [2] it was 280 nM.
For `COc1cc2c(Oc3ccc(NC(=O)c4cn(-c5c(C)cccc5C)nn4)cc3F)ccnc2cc1OCCCN1CCN(C)CC1`, the half-maximal inhibitory concentration (IC50) in the assay on A549 came to 2180 nM; in the assay on HT-29, 2170 nM; in assay [2], 4540 nM.

As a reminder, the IC50 is the concentration needed to halve the response being measured.
